# Measured values as given in US9145449B2, “STIP1 polypeptides and uses thereof” (Chang Gung Memorial Hospital, Linkou Branch, priority 2013, dated 2015).
# Where a SMILES comes first, the peptide text is derived from it. Where no end group is shown, it is not given here.
# Assays:
# [1] = tested on: ovarian cancer cells (MDAH2774); assay: MTT cell viability of transfected MDAH2774 cells; assay type: cell-based, human; conditions: for Normalized O.D / Original O.D / cancer cell viability (in words, FIG. 10B and Table 2): MTT, MDAH2774; for Normalized O.D / Original O.D: peptide 200 uM; for cancer cell viability (in words, FIG. 10B and Table 2): transfected peptides
# Description: Human ovarian cancer cell lines TOV112D, TOV21G, SKOV3, MDAH2774, ES2, MDAH2774, BG1; human endometrial cancer cell line RL95-2, human pancreatic cancer cell line BxPC3, breast cancer cell line (MCF7) and colon cancer cell line (HT29) were obtained from ATCC (Rockville, Md., USA). Lung cancer cell line CL1-0 and nasopharyngeal carcinoma cell line NPC-BM1 were obtained from Dr. C C Wu (Department of Medical Biotechnology and Laboratory Science, Chang-Gung University, Taoyuan, Taiwan), Wu et al. Mol. Cell Proteomics 9(6):11100 (20101). Mouse ovarian cancer cell line MOSEC was obtained from Dr. C L Chang (Department of Obstetrics and Gynecology, Mackay Memorial Hospital, Taipei, Taiwan), Chang et al. Cancer Research 67:10047 (2007). TOV112D, TOV21G, SKOV3, MDAH2774, ES2 and RL95-2 were cultured in Dulbecco's modified Eagle's medium/F-12 supplemented with 10% fetal bovine serum and antibiotics at 37° C. in 5% CO2 humidified atmosphere. BxPC3, CL1-0, NPC-BM1 and MOSEC cells were cultured in RPMI 1640 media supplemented with 10% fetal bovine serum.
# Cancer cells were transfected with an STIP1 antibody in PLUSin reagent (Polyplus-transfection Inc., NY, USA) according to manufacturer's protocol. In summary, 2×10^3˜6×10^3 cancer cells were seeded in a 96-well plate overnight, followed by PBS rinse and the addition of 180 μl of OPTI-MEM. 0.6 μg of mouse STIP1 antibody were diluted in 20 mM HEPES, mixed with 1.2 μl of PLUSin by vortexing, followed by incubation at room temperature for 15 min. The antibody/PLUSin mixture was added to the cancer cells by gentle swirling the plate. The STIP1 antibody and the control IgG used in the working examples described herein are commercially available from Abnova Biotechnology Inc., (Taipei City, Taiwan). The STIP1 antibody in the working examples described herein can be used to detect recombinant full length STIP1 (SEQ ID NO:3).
# 1˜2×10^4 Cancer cells were plated per well in 96-well plates overnight, then transfected with a mouse STIP1 antibody (commercially available from Abnova Biotechnology Inc.) for 48 h before they were assessed. The inhibitory effect of the STIP1 antibody on the cancer cells was measured by the MTT [3-(4,5-Dimethylthiazol-2-yl)-2,5-Diphenyltetrazolium Bromide]method (Sigma St. Louis, Mo.). The optical density was measured at 570 nm using an automated scanning multiwell spectrophotometer (Wallac Victor2 spectrophotometer; PerkinElmer, Boston, Mass., USA).
# Given the neutralizing effect of STIP1 polypeptide 520-543 (SEQ ID NO:1) on STIP1 antibody, co-transfecting STIP1 antibody and STIP1 polypeptide 520-543 in cancer cells may reduce the suppression effect of STIP1 antibody. FIG. 10A and Table 1 show cell viability of ovarian cancer cells (MDAH2774) transfected with STIP1 antibody only (positive control) and STIP1 antibody with various concentrations of STIP1 polypeptide 520-543. Cell viability was evaluated using MTT assays. […] For example, the cell viability for STIP1 antibody was 78.81% (Table 1), the cell viability for 25 uM of STIP1 polypeptide 520-543 was 102% (Table 2), and the cell viability for STIP1 antibody and […] of STIP1 polypeptide 520-543 was 56.38% (Table 1). Similarly, the cell viability for 200 uM of STIP1 polypeptide 520-543 was 28.64% (Table 2), and the cell viability for STIP1 antibody and […] of STIP1 polypeptide 520-543 was 27.67% (Table 1).
# ovarian cancer cells = assay: BrdU proliferation assay (FIG. 7A, 7C, 7E); assay type: cell-based, human; conditions: for rhSTIP1-increased BrdU incorporation: with inhibitor, antibody or siRNA
# Method: (§1) The BrdU assay and Ki67 staining procedures have been reported previously (Tsai et al 2012, Wang et al 2010). For BrdU assays, cancer cells were seeded at a density of 10^4 cells/well in a 96-well plate overnight, and cultured in serum-free medium for 24 h. Cancer cells were treated with 0.4 μM of rhSTIP1 in the presence of BrdU for 24 h. DNA synthesis activity was measured using BrdU ELISA kit (Roche Applied Science). For immunocytochemistry studies of Ki-67, MDAH2774 cells were cultured on Lab-Tek II chamber slides (Nalge Nunc International, Denmark) overnight. After serum starvation or RNAi transfection for 72 h, cancer cells were treated with 0.4 μM of STIP1 with or without an STIP1 antibody for another 24 h. The slides were fixed with 99.9% of ethanol, rehydrated with PBS, treated with 3% of hydrogen peroxide for 20 min, permeabilized with 0.1% Triton X-100 (Sigma) for 15 min, and stained with anti-Ki67 antibody (Thermo Fisher Scientific, Rockford, Ill.).
# (§2) BrdU is an analogue of thymidine which can replace thymidine during DNA replication, and Ki67 is a nuclear protein that is associated with cell proliferation. BrdU incorporation assay and immunocytochemistry for endogenous Ki67 were used as an index for cell proliferation. Treatment with rhSTIP1 increased the BrdU incorporation rate and Ki67 staining of ovarian cancer cells (FIG. 7A to FIG. 7F). These activities were reduced by treatment with an ALK2/ALK3 inhibitor (LDN193189) and an ERK inhibitor (PD98059) (FIGS. 7A and 7B), an STIP1 antibody (FIGS. 7C and 7D), and ALK2 siRNA and STIP1 siRNA (FIGS. 7E and 7F).
# MDAH2774 cells = assay: Ki67 immunocytochemistry (FIG. 7B, 7D, 7F); assay type: cell-based, human; conditions: for rhSTIP1-increased Ki67 staining: with inhibitor, antibody or siRNA
# Method: as §1, §2
# [2] = tested on: MDAH2774, ARK2, NPC-BM1, SAS, Colon 205, CL 1-0, BxPC3, HepG2 and MCF7 cells; assay: MTT assay with cell permeable peptide, cancer cell line panel (FIG. 13B); assay type: cell-based; conditions: all of the tested cancer cells
# Method: (§3) Cell permeable STIP1 polypeptide 520-543 was added to the following cancer cell lines: MDAH2774 (ovarian cancer); ARK2 (endometrial cancer); NPC-BM1 (nasopharyngeal cancer); SAS (oral cancer); Colon 205 (colon cancer); CL 1-0 (lung cancer); BxPC3 (pancreatic cancer); HepG2 (liver cancer) and MCF7 (breast cancer) cells. Cancer cell viability was assessed using the MTT assay and cell death was assessed using LDH assay.
# [3] = tested on: MDAH2774, ARK2, NPC-BM1, SAS, Colon 205, CL 1-0, BxPC3, HepG2 and MCF7 cells; assay: LDH assay with cell permeable peptide, cancer cell line panel (FIG. 13A); assay type: cell-based; conditions: all of the tested cancer cells
# Method: as §3
# SMAD1/5 phosphorylation = SMAD1/5 phosphorylation western blot / antibody neutralization assay (FIG. 6A, 6B); assay type: cell-based, human; conditions: ES2, SKOV3, TOV21G, TOV112D, BR, BG1, RL95-2, CL1-0, NPC-BM1 cell lines
# Method: Cell lysates were prepared with a RIPA buffer (150 mM NaCl, 20 mM Tris-Cl pH7.5, 1% Triton X-100, 1% NP40, 0.1% SDS, 0.5% deoxycholate) containing freshly added proteinase and phosphatase inhibitors (Bionovas, Toronto). Protein concentration was measured using the Bradford method. Fifty μg of each sample was electrophoresed in 10% SDS-polyacrylamide gels, and transferred to nitrocellulose membranes. STIP1 antibody was commercially available from Abnova Biotechnology and Santa Cruz Biotechnology, Santa Cruz, Calif., actin was commercially available from Sigma, the corresponding horseradish peroxidase-conjugated antibody was commercially available from Santa Cruz Biotechnology, enhanced chemiluminescence reagent was commercially available from Millipore Inc. (Millipore, Billerica, Mass.). The signal intensity of autoradiogram was quantified using the UN-SCAN-IT software (Silk Scientific, Orem, Utah), and relative intensity of each sample was normalized by the corresponding actin intensity. For antibody neutralization assay, cancer cells were cultured in serum-free medium for 24 h, and treated with rhSTIP1 for another 24 h in the presence or absence of the STIP1 monoclonal antibody, which were pre-incubated at 37° C. for 1 h. Endogenous phospho-SMAD1/5 was detected with western blot analysis. […]
Molecule,Normalized O.D [1],Original O.D [1],"cancer cell viability (in words, FIG. 10B and Table 2) [1]",rhSTIP1-increased BrdU incorporation (ovarian cancer cells),rhSTIP1-increased Ki67 staining (MDAH2774 cells),other results
CSCC[C@H](NC(=O)[C@H](CCSC)NC(=O)[C@H](CS)NC(=O)[C@H](CCCNC(=N)N)NC(=O)[C@H](CCC(N)=O)NC(=O)[C@H](Cc1ccc(O)cc1)NC(=O)CNC(=O)[C@H](CC(=O)O)NC(=O)[C@H](C)NC(=O)[C@H](C)NC(=O)[C@H](CCC(=O)O)NC(=O)[C@H](CCCCN)NC(=O)[C@H](CS)NC(=O)[C@H](CO)NC(=O)[C@H](CO)NC(=O)[C@@H](N)CC(=O)O)C(=O)N[C@@H](C)C(=O)N[C@@H](CCC(N)=O)C(=O)N[C@@H](Cc1ccc(O)cc1)C(=O)N[C@@H](CC(N)=O)C(=O)N[C@@H](CCCNC(=N)N)C(=O)N[C@@H](Cc1c[nH]cn1)C(=O)N[C@@H](CC(=O)O)C(=O)N[C@@H](CO)C(=O)N1CCC[C@H]1C(=O)O [Peptide 458] (H-DSSCKEAADGYQRCMMAQYNRHDSP-OH; N-terminus and C-terminus assumed),0.83,0.13,did not significantly suppress cancer cell viability,–,–,–
COc1cccc(-c2cc(=O)c3ccccc3o2)c1N [PD98059],–,–,–,reduced,reduced,"cell proliferation (BrdU incorporation, FIG. 7A) (ovarian cancer cells; inhibition of ERK activity): strongly inhibited cell proliferation"
c1ccc2c(-c3cnn4cc(-c5ccc(N6CCNCC6)cc5)cnc34)ccnc2c1 [LDN193189],–,–,–,reduced,reduced,–
"cell permeable STIP1 polypeptide 520-543: STIP1 polypeptide 520-543 having eight D-arginine residues; detected with anti-myc antibody (EHLKNPVIAQKIQKLMDVGLIAIR; also: octa-D-arginine attached, end not given here, myc tag; UniProt P31948 520-543, looked up, fragment)",–,–,–,–,–,cell proliferation (MTT activity) [2]: inhibits cell proliferation; cell death (LDH activity) [3]: induce cell death
rhSTIP1: recombinant human STIP1 protein (a.a. sequence number 1 to 543),–,–,–,–,–,"SMAD1/5 phosphorylation (SMAD1/5 phosphorylation): stimulates SMAD1/5 phosphorylation; BrdU incorporation rate (ovarian cancer cells; treatment with rhSTIP1 (0.4 μM, 24 h)): increased; Ki67 staining (MDAH2774 cells; treatment with rhSTIP1): increased"
VQQIMSDPAMRLILEQMQKDPQALS [Peptide 495],0.97,0.14,did not significantly suppress cancer cell viability,–,–,"Cell viability (%) ([1]; human, 48 h, 200 uM): 96.94%"
